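Cultured in 96-well plates, cells were exposed to test compound for 48 hours across five concentrations. Abbreviation: GI50, concentration required for 50% inhibition of growth. TGI marks complete inhibition of growth.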
Key:
Experiment in all cases: growth of human tumour cells (NCI), 48 h
786-0 renal = test system: 786-0 renal
A498 renal = test system: A498 renal
A549 NSCLC = test system: A549 NSCLC
ACHN renal = test system: ACHN renal
BT-549 breast = test system: BT-549 breast
CAKI-1 renal = test system: CAKI-1 renal
CCRF-CEM leukemia = test system: CCRF-CEM leukemia
COLO 205 colon = test system: COLO 205 colon
DU-145 prostate = test system: DU-145 prostate
EKVX NSCLC = test system: EKVX NSCLC
HCC-2998 colon = test system: HCC-2998 colon
HCT-116 colon = test system: HCT-116 colon
HCT-15 colon = test system: HCT-15 colon
HL-60(TB) leukemia = test system: HL-60(TB) leukemia
HOP-62 NSCLC = test system: HOP-62 NSCLC
HOP-92 NSCLC = test system: HOP-92 NSCLC
HS 578T breast = test system: HS 578T breast
HT29 colon = test system: HT29 colon
IGROV1 ovarian = test system: IGROV1 ovarian
K-562 leukemia = test system: K-562 leukemia
KM12 colon = test system: KM12 colon
LOX IMVI melanoma = test system: LOX IMVI melanoma
M14 melanoma = test system: M14 melanoma
MALME-3M melanoma = test system: MALME-3M melanoma
MCF7 breast = test system: MCF7 breast
MDA-MB-231 breast = test system: MDA-MB-231 breast
MDA-MB-435 = test system: MDA-MB-435
MDA-MB-468 breast = test system: MDA-MB-468 breast
MOLT-4 leukemia = test system: MOLT-4 leukemia
NCI-H226 lung = test system: NCI-H226 lung
NCI-H23 lung = test system: NCI-H23 lung
NCI-H460 lung = test system: NCI-H460 lung
NCI-H522 lung = test system: NCI-H522 lung
NCI/ADR-RES ovarian = test system: NCI/ADR-RES ovarian
OVCAR-3 ovarian = test system: OVCAR-3 ovarian
OVCAR-4 ovarian = test system: OVCAR-4 ovarian
OVCAR-5 ovarian = test system: OVCAR-5 ovarian
OVCAR-8 ovarian = test system: OVCAR-8 ovarian
PC-3 prostate = test system: PC-3 prostate
RPMI-8226 leukemia = test system: RPMI-8226 leukemia
RXF 393 renal = test system: RXF 393 renal
SF-268 CNS = test system: SF-268 CNS
SF-295 CNS = test system: SF-295 CNS
SF-539 CNS = test system: SF-539 CNS
SK-MEL-2 melanoma = test system: SK-MEL-2 melanoma
SK-MEL-28 melanoma = test system: SK-MEL-28 melanoma
SK-MEL-5 melanoma = test system: SK-MEL-5 melanoma
SK-OV-3 ovarian = test system: SK-OV-3 ovarian
SN12C renal = test system: SN12C renal
SNB-19 CNS = test system: SNB-19 CNS
SNB-75 CNS = test system: SNB-75 CNS
SR leukemia = test system: SR leukemia
SW-620 colon = test system: SW-620 colon
T-47D breast = test system: T-47D breast
TK-10 renal = test system: TK-10 renal
U251 CNS = test system: U251 CNS
UACC-257 melanoma = test system: UACC-257 melanoma
UACC-62 melanoma = test system: UACC-62 melanoma
UO-31 renal = test system: UO-31 renal

For `COc1ccc(-c2cc(-c3cc(C(C)C)c(O)cc3C)nn2-c2ccc(S(N)(=O)=O)cc2)cc1`, the GI50 (786-0 renal) was 12.2 µM, the TGI (786-0 renal) was 25 µM and the GI50 (A498 renal) was 13.9 µM. For the same compound, the TGI (A498 renal) was 27.8 µM, the GI50 (A549 NSCLC) was 6.2 µM and the TGI (A549 NSCLC) was 20.6 µM. The GI50 (ACHN renal) was 11.7 µM, the TGI (ACHN renal) was 23.9 µM and the GI50 (BT-549 breast) was 3.29 µM. The TGI (BT-549 breast) was 13.2 µM, the GI50 (CAKI-1 renal) was 5.59 µM and the TGI (CAKI-1 renal) was 19.2 µM. It also gave a GI50 (CCRF-CEM leukemia) of 3.43 µM, a TGI (CCRF-CEM leukemia) of 26.3 µM and a GI50 (COLO 205 colon) of 18.7 µM. The TGI (COLO 205 colon) was 34.1 µM, the GI50 (DU-145 prostate) was 7.31 µM and the TGI (DU-145 prostate) was 19.8 µM. It also gave a GI50 (EKVX NSCLC) of 10.3 µM, a TGI (EKVX NSCLC) of 21.9 µM and a GI50 (HCC-2998 colon) of 11.4 µM. The TGI (HCC-2998 colon) was 23.6 µM, the GI50 (HCT-116 colon) was 6.17 µM and the TGI (HCT-116 colon) was 21.3 µM. The GI50 (HCT-15 colon) was 3.69 µM, the TGI (HCT-15 colon) was 14.5 µM and the GI50 (HL-60(TB) leukemia) was 3.53 µM. It also gave a TGI (HL-60(TB) leukemia) of 19.8 µM, a GI50 (HOP-62 NSCLC) of 10.7 µM and a TGI (HOP-62 NSCLC) of 23.9 µM. For the same compound, the GI50 (HOP-92 NSCLC) was 7.18 µM, the TGI (HOP-92 NSCLC) was 21.5 µM and the GI50 (HS 578T breast) was 11.9 µM. For the same compound, the TGI (HS 578T breast) was 38.6 µM, the GI50 (HT29 colon) was 16.2 µM and the TGI (HT29 colon) was 30.2 µM. The GI50 (IGROV1 ovarian) was 13.4 µM, the TGI (IGROV1 ovarian) was 26.5 µM and the GI50 (K-562 leukemia) was 2.82 µM. For the same compound, the TGI (K-562 leukemia) was 18 µM, the GI50 (KM12 colon) was 3.76 µM and the TGI (KM12 colon) was 14.6 µM. It also gave a GI50 (LOX IMVI melanoma) of 5.47 µM, a TGI (LOX IMVI melanoma) of 18.1 µM and a GI50 (M14 melanoma) of 11.3 µM. For the same compound, the TGI (M14 melanoma) was 25.1 µM, the GI50 (MALME-3M melanoma) was 11.8 µM and the TGI (MALME-3M melanoma) was 24.3 µM. The GI50 (MCF7 breast) was 4.89 µM, the TGI (MCF7 breast) was 20 µM and the GI50 (MDA-MB-231 breast) was 7.99 µM. It also gave a TGI (MDA-MB-231 breast) of 21 µM, a GI50 (MDA-MB-435) of 2.22 µM and a TGI (MDA-MB-435) of 4.84 µM. The GI50 (MDA-MB-468 breast) was 2.07 µM, the TGI (MDA-MB-468 breast) was 5.71 µM and the GI50 (MOLT-4 leukemia) was 2.88 µM. For the same compound, the TGI (MOLT-4 leukemia) was 8.39 µM, the GI50 (NCI-H226 lung) was 16.8 µM and the TGI (NCI-H226 lung) was 38.8 µM. For the same compound, the GI50 (NCI-H23 lung) was 10.5 µM, the TGI (NCI-H23 lung) was 23 µM and the GI50 (NCI-H460 lung) was 8.42 µM. The TGI (NCI-H460 lung) was 22 µM, the GI50 (NCI-H522 lung) was 3.15 µM and the TGI (NCI-H522 lung) was 13.7 µM. It also gave a GI50 (NCI/ADR-RES ovarian) of 3.06 µM, a TGI (NCI/ADR-RES ovarian) of 11.4 µM and a GI50 (OVCAR-3 ovarian) of 5.16 µM. It also gave a TGI (OVCAR-3 ovarian) of 17 µM, a GI50 (OVCAR-4 ovarian) of 13.6 µM and a TGI (OVCAR-4 ovarian) of 31 µM. The GI50 (OVCAR-5 ovarian) was 16.3 µM, the TGI (OVCAR-5 ovarian) was 29.8 µM and the GI50 (OVCAR-8 ovarian) was 8.17 µM. It also gave a TGI (OVCAR-8 ovarian) of 23.2 µM, a GI50 (PC-3 prostate) of 10.3 µM and a TGI (PC-3 prostate) of 24.7 µM. It also gave a GI50 (RPMI-8226 leukemia) of 4.83 µM, a TGI (RPMI-8226 leukemia) of 32.8 µM and a GI50 (RXF 393 renal) of 5.76 µM. It also gave a TGI (RXF 393 renal) of 20.7 µM, a GI50 (SF-268 CNS) of 12.9 µM and a TGI (SF-268 CNS) of 28.6 µM. The GI50 (SF-295 CNS) was 10.9 µM, the TGI (SF-295 CNS) was 22.8 µM and the GI50 (SF-539 CNS) was 3.63 µM. The TGI (SF-539 CNS) was 13.3 µM, the GI50 (SK-MEL-2 melanoma) was 13.7 µM and the TGI (SK-MEL-2 melanoma) was 26.9 µM. For the same compound, the GI50 (SK-MEL-28 melanoma) was 13 µM, the TGI (SK-MEL-28 melanoma) was 25.7 µM and the GI50 (SK-MEL-5 melanoma) was 11.1 µM. It also gave a TGI (SK-MEL-5 melanoma) of 23.3 µM, a GI50 (SK-OV-3 ovarian) of 13.8 µM and a TGI (SK-OV-3 ovarian) of 27.3 µM. It also gave a GI50 (SN12C renal) of 12 µM, a TGI (SN12C renal) of 25.1 µM and a GI50 (SNB-19 CNS) of 12.5 µM. The TGI (SNB-19 CNS) was 25 µM, the GI50 (SNB-75 CNS) was 6.08 µM and the TGI (SNB-75 CNS) was 18.6 µM. The GI50 (SR leukemia) was 1.91 µM, the TGI (SR leukemia) was 15.1 µM and the GI50 (SW-620 colon) was 6.44 µM. For the same compound, the TGI (SW-620 colon) was 20.4 µM, the GI50 (T-47D breast) was 4.32 µM and the TGI (T-47D breast) was 21.3 µM. The GI50 (TK-10 renal) was 15 µM, the TGI (TK-10 renal) was 28.4 µM and the GI50 (U251 CNS) was 4.49 µM. The TGI (U251 CNS) was 16.5 µM, the GI50 (UACC-257 melanoma) was 12.7 µM and the TGI (UACC-257 melanoma) was 25.7 µM. It also gave a GI50 (UACC-62 melanoma) of 10.2 µM, a TGI (UACC-62 melanoma) of 22.1 µM and a GI50 (UO-31 renal) of 7.83 µM. The TGI (UO-31 renal) was 20.6 µM.
